{
  "source": "patent US6777237B2",
  "about": "“Bioconjugates and delivery of bioactive agents” (University of Utah Research Foundation, priority 1996, dated 2004)",
  "key": {"HCT-116 cell line": {"test_system": "HCT-116 cell line", "experiment": "MTT cell viability assay, HCT-116 cell line", "type": "cell-based, human", "conditions": "for IC50: HCT-116"}, "RD-995 cell line": {"test_system": "RD-995 cell line", "experiment": "MTT cell viability assay, RD-995 cell line", "type": "cell-based, mouse"}, "[1]": {"experiment": "Thermal stability of bioconjugates in media (UV-vis, then photolysis check)", "type": "physicochemical"}, "Meth-A cell line": {"test_system": "Meth-A cell line", "experiment": "MTT cell viability assay, Meth-A cell line", "type": "cell-based, mouse"}, "HL-60 cell line": {"test_system": "HL-60 cell line", "experiment": "MTT cell viability assay, HL-60 cell line", "type": "cell-based, human", "conditions": "for IC50: HL-60"}, "B-16 cell line": {"test_system": "B-16 cell line", "experiment": "MTT cell viability assay, B-16 cell line", "type": "cell-based, mouse"}, "[2]": {"experiment": "Anaerobic continuous-wave photolysis of methylcob(III)alamin", "type": "physicochemical", "conditions": "514 nm light from an Argon-ion laser", "experimental": "A protocol for a typical anaerobic continuous-wave photolysis of methylcob(III)alamin or CH3Cbl^III is as follows. An aqueous solution of 200 μM CH3Cbl^III and 50 mM K^+ Hepes pH 7.3 is placed in a 1 cm quartz cuvette. Samples that are to be photolyzed under anaerobic conditions are either subjected to repeated freeze-pump-thaw cycles, or purged with Ar for 40 minutes immediately prior to photolysis and sealed. Continuous-wave visible light irradiation is accomplished at the desired wavelength with an Ar^+ pumped dye laser. The incident light on the face of the cuvette is reduced to 12 mW cm^−2 with neutral density filters. The light flux is determined by potassium ferrioxalate actinomety and by a Scientech surface-reading thermopile. The cuvette is placed in a thermostated cell holder at 25-37° C. […] The magnetic field within the area of the cuvette is homogeneous to within 2% and the long term stability is better than 0.5% as monitored by a transverse Hall probe and digital teslameter.\nAbsorption spectra from 300-600 nm are recorded in one second with a diode array spectrophotometer at variable time intervals from 10 seconds to 2 minutes (depending upon the fluence of the photolyzing light source) for a total of 3 τ1/2. […] The concentration of CH3Cbl^III is determined using the measured absorbance at 350 or 520 nm by the method of Chen and Chance (1993). […]"}, "[3]": {"conditions": "Photolysis (10 min irradiation, 1 h after treatment)"}, "[4]": {"conditions": "Homo sapiens, unconjugated chlorambucil"}, "[5]": {"conditions": "Mus musculus, unconjugated chlorambucil"}},
  "data": [
    {"compound": "2-[4-(4′-[bis-(2-chloroethyl)amino]phenyl)butyroxy]ethylcob(III)alamin [compound 3]", "values": [
      {"measurement": "LD50", "setting": "HCT-116 cell line; HCT-116, FIG. 5, brief irradiation with red light 12 hours after dosing", "result": 0.08, "unit": "µM"},
      {"measurement": "toxicity", "setting": "HCT-116 cell line; HCT-116, FIG. 5, no photolysis, at concentrations approaching 100 μM", "result": "no substantial toxicity"},
      {"measurement": "LD50", "setting": "HCT-116 cell line; HCT-116, FIG. 5, photolysis with 10-fold excess of vitamin B12 added", "result": 2, "unit": "µM"},
      {"measurement": "IC50", "setting": "HCT-116 cell line; [3]", "result": 1.7, "unit": "µM"},
      {"measurement": "IC50", "setting": "RD-995 cell line; [3]", "result": 0.2, "unit": "µM"},
      {"measurement": "thermal lability", "setting": "[1]", "result": "thermal lability"},
      {"measurement": "IC50", "setting": "Meth-A cell line; No Photolysis", "result": 210, "unit": "µM"},
      {"measurement": "IC50", "setting": "Meth-A cell line; [3]", "result": 0.2, "unit": "µM"},
      {"measurement": "LD50", "setting": "HL-60 cell line; HL-60, FIG. 6, bioconjugate, no photolysis", "result": 0.2, "unit": "µM"},
      {"measurement": "fold better than unconjugated chlorambucil standard (LD50)", "setting": "HL-60 cell line; HL-60, FIG. 6, no photolysis", "result": "at least 2 fold"},
      {"measurement": "toxicity", "setting": "HL-60 cell line; HL-60, FIG. 6, with addition of 10 equivalents of vitamin B12, no photolysis", "result": "absence of toxicity"},
      {"measurement": "IC50", "setting": "HL-60 cell line; No Photolysis", "result": 3.2, "unit": "µM"},
      {"measurement": "IC50", "setting": "B-16 cell line; [3]", "result": 0.6, "unit": "µM"}
    ]},
    {"compound": "4-[4′-(bis-[2-chloroethyl]amino)phenyl]butyroylcob(III)alamin [compound 4]", "values": [
      {"measurement": "IC50", "setting": "HCT-116 cell line; [3]", "result": 1.1, "unit": "µM"},
      {"measurement": "IC50", "setting": "RD-995 cell line; [3]", "result": 0.3, "unit": "µM"},
      {"measurement": "thermal lability", "setting": "[1]", "result": "thermal lability"},
      {"measurement": "IC50", "setting": "Meth-A cell line; No Photolysis", "result": 84.2, "unit": "µM"},
      {"measurement": "IC50", "setting": "Meth-A cell line; [3]", "result": 0.3, "unit": "µM"},
      {"measurement": "IC50", "setting": "HL-60 cell line; No Photolysis", "result": 8.9, "unit": "µM"},
      {"measurement": "IC50", "setting": "B-16 cell line; [3]", "result": 0.3, "unit": "µM"}
    ]},
    {"compound": "C/C1=C2/[N-][C@H]([C@H](CC(N)=O)[C@@]2(C)CCC(=O)NC[C@@H](C)OP(=O)([O-])O[C@H]2[C@@H](O)[C@@H](n3cnc4cc(C)c(C)cc43)O[C@@H]2CO)[C@]2(C)N=C(/C(C)=C3N=C(/C=C4N=C1[C@@H](CCC(N)=O)C\\4(C)C)[C@@H](CCC(N)=O)[C@]\\3(C)CC(N)=O)[C@@H](CCC(N)=O)[C@]2(C)CC(N)=O.[CH3-].[Co]", "note": "[CH3Cbl^III, methylcob(III)alamin]", "values": [
      {"measurement": "photolysis quantum yield", "setting": "[2]", "result": "about 0.3"}
    ]},
    {"compound": "O=C(O)CCCc1ccc(N(CCCl)CCCl)cc1", "note": "[Chlorambucil, reference compound]", "values": [
      {"measurement": "LD50", "setting": "HCT-116 cell line; HCT-116, FIG. 5, chlorambucil alone", "result": "about 2 μM"},
      {"measurement": "IC50", "setting": "HCT-116 cell line; [4]", "result": 20.8, "unit": "µM"},
      {"measurement": "IC50", "setting": "RD-995 cell line; [5]", "result": 1.1, "unit": "µM"},
      {"measurement": "IC50", "setting": "Meth-A cell line; [5]", "result": 1.8, "unit": "µM"},
      {"measurement": "LD50", "setting": "HL-60 cell line; HL-60, FIG. 6, unconjugated chlorambucil standard", "result": 0.5, "unit": "µM"},
      {"measurement": "IC50", "setting": "HL-60 cell line; [4]", "result": 5.8, "unit": "µM"},
      {"measurement": "IC50", "setting": "B-16 cell line; Mus musculus, B16, unconjugated chlorambucil", "result": 1.4, "unit": "µM"}
    ]}
  ]
}
